The values below come from US20210236391A1, “Dental Product, use of a Dental Product and methods of use of a dental product” (DR HEFF'S PRODUCTS LIMITED, priority 2015, published 2021).

A short description of test [1]: Rhodamine B fluorescence intensity (lesion porosity) after in vitro pH-proteolytic cycling. Also noted: species or system bovine. Particulars: for decrease percentage of the mean Rhodamine fluorescence (F) exhibited by caries lesions: after treatments (suspended in artificial saliva, 5 times per day for 3 minutes) and pH-proteolytic cycling for 8 days. As for the experimental part: An objective of the experimental study was to investigate the effects of mints containing bioactive agents, specifically the xylitol, ACP and eGCG, in the re-mineralization of root dentin surfaces. […] The caries lesions depths and porosity as well as mineral density (hydroxyapatite content) were estimated using fluorescence microscopy and micro-computed tomography. Extracted sound bovine incisors were freshly collected from a slaughterhouse, cleaned and stored at 4° C. in 0.1% thymol for no longer than 2 weeks. Two root fragments (5×4×1 mm) from the cervical portion (mesial and distal) of the root were obtained from each tooth using diamond disk mounted in a cutting machine (Isomet 1000, Buehler, Lake Bluff, IL, USA). The dentin surfaces were polished using #600 and #800 abrasive paper (Carbimet, Buehler) under constant water irrigation. The entire surface of the fragments was sealed with acid-resistant nail polish, except for a 4×3 mm window on the polished dentin surface. The root fragments were placed in a demineralization solution (2.2 mM CaCl2.2H2O, 2.2 mM KH2PO4, 50 mM acetate, pH 4.6) for 96 h at 37° C. to create initial caries lesions of approximately 120 μm-deep (1). Following lesion development, the fragments were rinsed thoroughly with deionized water, and half of the specimens' windows were covered with an acid-resistant nail polish to maintain the baseline lesion. […] The concentrations were optimized to simulate the in vivo conditions in which the normal salivary flow is 0.5 mL/min (2). Thus, one third of the mints (g) were dissolved in 0.5 ml of artificial saliva and the ingredients concentrations were kept at same ratio as in the original mint formulation. […] All solutions were prepared daily prior to use. In addition to pH cycling, the overnight re-mineralization solutions had bacterial collagenase from Chlostridium Histolycum (100 μg/ml) to simulate enzymatic challenge. Each specimen was sectioned perpendicularly to the varnished area so that each section included the baseline and post-treatment lesions. Half of each sample was used for fluorescence microscopy and the other half was used for micro-computed tomography. […] The assumption of equality of variances and normal distribution of errors were verified using Levene's test. Analysis of variance (ANOVA) followed by Scheffe or Game-Howell tests were performed at α=0.05 using SPSS 20 software.

A short description of test [2]: Apparent mineral density by micro-computed tomography after in vitro pH-proteolytic cycling. On the set-up: species or system bovine. Particulars: for increase percentage of the apparent mineral density (mg HA/ccm): mean values after pH-proteolytic cycling and treatments, micro-CT; for effect on mineral density of the caries lesion (in words): after pH-proteolytic cycling and treatments, compared to AS control. Here is the method:
An objective of the experimental study was to investigate the effects of mints containing bioactive agents, specifically the xylitol, ACP and eGCG, in the re-mineralization of root dentin surfaces. […] The caries lesions depths and porosity as well as mineral density (hydroxyapatite content) were estimated using fluorescence microscopy and micro-computed tomography. Extracted sound bovine incisors were freshly collected from a slaughterhouse, cleaned and stored at 4° C. in 0.1% thymol for no longer than 2 weeks. Two root fragments (5×4×1 mm) from the cervical portion (mesial and distal) of the root were obtained from each tooth using diamond disk mounted in a cutting machine (Isomet 1000, Buehler, Lake Bluff, IL, USA). The dentin surfaces were polished using #600 and #800 abrasive paper (Carbimet, Buehler) under constant water irrigation. The entire surface of the fragments was sealed with acid-resistant nail polish, except for a 4×3 mm window on the polished dentin surface. The root fragments were placed in a demineralization solution (2.2 mM CaCl2.2H2O, 2.2 mM KH2PO4, 50 mM acetate, pH 4.6) for 96 h at 37° C. to create initial caries lesions of approximately 120 μm-deep (1). Following lesion development, the fragments were rinsed thoroughly with deionized water, and half of the specimens' windows were covered with an acid-resistant nail polish to maintain the baseline lesion. […] The concentrations were optimized to simulate the in vivo conditions in which the normal salivary flow is 0.5 mL/min (2). Thus, one third of the mints (g) were dissolved in 0.5 ml of artificial saliva and the ingredients concentrations were kept at same ratio as in the original mint formulation. […] All solutions were prepared daily prior to use. In addition to pH cycling, the overnight re-mineralization solutions had bacterial collagenase from Chlostridium Histolycum (100 μg/ml) to simulate enzymatic challenge. Each specimen was sectioned perpendicularly to the varnished area so that each section included the baseline and post-treatment lesions. Half of each sample was used for fluorescence microscopy and the other half was used for micro-computed tomography. Specimens (n=6 per group) were fixed in 10% neutral buffered formalin for 24 h. Specimens were held securely in a specimen holder, which were soaked with phosphate-buffered saline (PBS). […] The manufacturer's software was used to filter noise and segment the data at a threshold of 220. Tissue mineral density (based on a standard calibration phantom provided by the manufacturer) was determined (mg/cc of hydroxyapatite). […] The assumption of equality of variances and normal distribution of errors were verified using Levene's test. […]

Test [3] is described as follows: Caries lesion depth by fluorescence microscopy after in vitro pH-proteolytic cycling. Particulars: after treatments and pH-proteolytic cycling for 8 days. Also noted: species or system bovine. As for the experimental part:
An objective of the experimental study was to investigate the effects of mints containing bioactive agents, specifically the xylitol, ACP and eGCG, in the re-mineralization of root dentin surfaces. […] The caries lesions depths and porosity as well as mineral density (hydroxyapatite content) were estimated using fluorescence microscopy and micro-computed tomography. Extracted sound bovine incisors were freshly collected from a slaughterhouse, cleaned and stored at 4° C. in 0.1% thymol for no longer than 2 weeks. […] Half of each sample was used for fluorescence microscopy and the other half was used for micro-computed tomography. […] Samples were analyzed with a Fluorescence Microscope (DM16000 B, Leica), using TEX and DIC (differential interference contrast) channels. Fluorescence intensity line profiles obtained in TEX channel images of the pre and post-treatment lesions were analyzed in Image J Software (NIH), thereby providing mean intensity values (per pixel) for red emission channel of each image. The fluorescence intensity is directly related to the porosity of the de-mineralized dentin, where increased porosity is directly related to increased fluorescence intensity. Fluorescence data was presented as percentage difference from post-treatment and pre-treatment lesions of each specimen. […]

For test [4] the following is noted: five xylitol lozenges spaced across the day, caries-active adults; cited from earlier work.
The nature of test [5]: In vitro pH-proteolytic cycling model, overall re-mineralization and tissue observations. Also noted: species or system bovine. The text has this:
An objective of the experimental study was to investigate the effects of mints containing bioactive agents, specifically the xylitol, ACP and eGCG, in the re-mineralization of root dentin surfaces. […] The caries lesions depths and porosity as well as mineral density (hydroxyapatite content) were estimated using fluorescence microscopy and micro-computed tomography.
The objective of this study was to investigate the effects of mints containing bioactive agents (e.g. xylitol, ACP and eGCG) in the re-mineralization of root dentin surfaces. […] The caries lesions depths and porosity as well as mineral density (hydroxyapatite content) were estimated using fluorescence microscopy and micro computed tomography.
Extracted sound bovine incisors were freshly collected from a slaughterhouse, cleaned and stored at 4° C. in 0.1% thymol for no longer than 2 weeks. Two root fragments (5×4×1 mm) from the cervical portion (mesial and distal) of the root were obtained from each tooth using diamond disk mounted in a cutting machine (Isomet 1000, Buehler, Lake Bluff, IL, USA). The dentin surfaces were polished using #600 and #800 abrasive paper (Carbimet, Buehler) under constant water irrigation. The entire surface of the fragments was sealed with acid-resistant nail polish, except for a 4×3 mm window on the polished dentin surface. […]

“Also recorded” adds a separate entry of the source.

For `[F-].[Na+]` [NaF, sodium fluoride], the “decrease percentage of the mean Rhodamine fluorescence (F) exhibited by caries lesions” value (“decrease percentage” for short) in test [1] is recorded as 5.60%. In test [2], the “increase percentage of the apparent mineral density (mg HA/ccm)” value is 165.53%.
Consider `O=C(O[C@@H]1Cc2c(O)cc(O)cc2O[C@@H]1c1cc(O)c(O)c(O)c1)c1cc(O)c(O)c(O)c1` [eGCG, epigallocatechin gallate], for which the “decrease percentage” value in test [1] turned out to be 85.72%. Moreover, the “lesion porosity / fluorescence decrease compared to AS (negative control), statistical significance” value in test [1] (after treatments and pH-proteolytic cycling for 8 days) is on record as “statistically significant differences; also recorded: significant decrease in lesion porosity”. Moreover, in test [2], the “effect on mineral density of the caries lesion (in words)” value is given as “promotes mineral density similar to fluoride; also recorded: increased mineral density” and the “increase percentage of the apparent mineral density (mg HA/ccm)” value stood at 70.12%. Also, the “caries lesion depth change from initial lesions (in words)” value in test [3] is on record as “Significant (% caries lesion depth) decrease”.
Regarding `OC[C@@H](O)[C@H](O)[C@@H](O)CO` [xylitol], in test [1], the “decrease percentage” value is reported as 34.92%. In addition, the “effect on mineral density of the caries lesion (in words)” value in test [2] is on record as “does not help to increase mineral density”. In test [4], the “caries-preventive effect on root surfaces” value is given as “appears to have a caries-preventive effect on root surfaces” and the “incidence of smooth-surface, occusal-surface or proximal-surface caries, xylitol vs control participants” value is “no statistically significant difference”. Further, the dental tissue loss result in test [5] (after pH-proteolytic cycling and treatments, in artificial saliva) is listed as “dental tissue loss occurs; also recorded: Dental tissue loss was mainly observed”. The “caries re-mineralization (overall conclusion)” value in test [5] (artificially induced root caries, in vitro pH-proteolytic cycling) was “no significant effect”.
